Drawing on EP2350075B1, “SUBSTITUTED IMIDAZO[1,2B]PYRIDAZINE COMPOUNDS AS TRK KINASE INHIBITORS” (Array Biopharma, Inc., priority 2008, dated 2010), this text covers IC50 for twelve compounds.

The target of the experiment is T1, human TrkA (Homo sapiens, UniProt P04629).
T1 construct: histidine-tagged recombinant human TrkA, cytoplasmic domain; His tag; purchased Invitrogen Corp
T1 sequence (P04629 440-796 limits assumed): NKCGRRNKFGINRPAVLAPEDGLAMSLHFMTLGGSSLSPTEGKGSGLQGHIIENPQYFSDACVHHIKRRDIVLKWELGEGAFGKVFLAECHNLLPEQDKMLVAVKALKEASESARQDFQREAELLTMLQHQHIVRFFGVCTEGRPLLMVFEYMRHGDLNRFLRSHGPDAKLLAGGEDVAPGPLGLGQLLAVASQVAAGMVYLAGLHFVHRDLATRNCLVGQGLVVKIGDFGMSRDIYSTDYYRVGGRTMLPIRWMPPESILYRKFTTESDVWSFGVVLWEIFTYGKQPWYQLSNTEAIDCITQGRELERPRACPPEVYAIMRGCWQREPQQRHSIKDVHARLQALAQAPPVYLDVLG
Briefly: TrkA ELISA assay. The experiment is classed as biochemical. The conditions noted are these: 2.5 nM TrkA, 500 µM ATP, 25 minutes at ambient temperature; read-out: TrkA Elisa Enzyme IC50. The method, then: An enzyme-linked immunosorbant assay (ELISA) was used to assess TrkA kinase activity in the presence of inhibitors. […] The assay buffer consisted of 25 mM MOPS pH 7.5, 0.005% (v/v) Triton X-100 and 5 mM MgCl2. The reaction mixture was removed from the plate by washing with PBS containing 0.1% (v/v) Tween 20. […] After the addition of 1M phosphoric acid, the chromogenic substrate color intensity was quantitated via absorbance at 450 nm. IC50 values were calculated using either a 4 or 5-parameter logistic curve fit.
Take `CS(=O)(=O)Nc1ccc(C(=O)Nc2cnc3ccc(N4CCC[C@@H]4c4cc(F)ccc4F)nn23)cc1` [Example 4, (R)-N-(6-(2-(2,5-difluorophenyl)pyrrolidin-1-yl)imidazo[1,2-b]pyridazin-3-yl)-4-(methylsulfonamido)benzamide]: the IC50 came out at 2.1 nM.
Take `N#Cc1cccc(NC(=O)Nc2cnc3ccc(N4CCC[C@@H]4c4cc(F)ccc4F)nn23)c1` [Example 5, (R)-1-(3-cyanophenyl)-3-(6-(2-(2,5-difluorophenyl)pyrrolidin-1-yl)imidazo[1,2-b]pyridazin-3-yl)urea]: the IC50 is 74.2 nM.
To `N#Cc1ccc(NC(=O)Nc2cnc3ccc(N4CCC[C@@H]4c4cc(F)ccc4F)nn23)cc1` [Example 6, (R)-1-(4-cyanophenyl)-3-(6-(2-(2,5-difluorophenyl)pyrrolidin-1-yl)imidazo[1,2-b]pyridazin-3-yl)urea] belongs 10.7 nM.
To `O=C(Nc1ccc(Cl)cc1Cl)Nc1cnc2ccc(N3CCC[C@@H]3c3cc(F)ccc3F)nn12` [Example 7, (R)-1-(2,4-dichlorophenyl)-3-(6-(2-(2,5-difluorophenyl)pyrrolidin-1-yl)imidazo[1,2-b]pyridazin-3-yl)urea] belongs 39.4 nM; to `O=C(Nc1cccc(C(F)(F)F)c1)Nc1cnc2ccc(N3CCC[C@@H]3c3cc(F)ccc3F)nn12` [Example 8, (R)-1-(6-(2-(2,5-difluorophenyl)pyrrolidin-1-yl)imidazo[1,2-b]pyridazin-3-yl)-3-(3-(trifluoromethyl)phenyl)urea], 508 nM; to `COc1ccc(NC(=O)Nc2cnc3ccc(N4CCC[C@@H]4c4cc(F)ccc4F)nn23)cc1` [Example 30, (R)-1-(6-(2-(2,5-difluorophenyl)pyrrolidin-1-yl)imidazo[1,2-b]pyridazin-3-yl)-3-(4-methoxyphenyl)urea], 5.5 nM.
To `COc1cc(NC(=O)Nc2cnc3ccc(N4CCC[C@@H]4c4cc(F)ccc4F)nn23)cc(OC)c1OC` [Example 32, (R)-1-(6-(2-(2,5-difluorophenyl)pyrrolidin-1-yl)imidazo[1,2-b]pyridazin-3-yl)-3-(3,4,5-trimethoxyphenyl)urea] belongs 176 nM.
`Cc1noc(C)c1NC(=O)Nc1cnc2ccc(N3CCC[C@@H]3c3cc(F)ccc3F)nn12` [Example 33, (R)-1-(6-(2-(2,5-difluorophenyl)pyrrolidin-1-yl)imidazo[1,2-b]pyridazin-3-yl)-3-(3,5-dimethylisoxazol-4-yl)urea]: the IC50 was determined as 901 nM.
Then `O=C(Nc1cnc2ccc(N3CCCCC3c3cccc(F)c3)nn12)N1CC(O)C1` (stereo not drawn) [Example 43, N-(6-(2-(3-fluorophenyl)piperidin-1-yl)imidazo[1,2-b]pyridazin-3-yl)-3-hydroxyazetidine-1-carboxamide], with 216 nM.
Take `CC(C)(C)OC(=O)N1CCN(C(=O)Nc2cnc3ccc(N4CCC[C@@H]4c4cc(F)ccc4F)nn23)CC1(C)C` [Example 48, (R)-tert-butyl 4-(6-(2-(2,5-difluorophenyl)pyrrolidin-1-yl)imidazo[1,2-b]pyridazin-3-ylcarbamoyl)-2,2-dimethylpiperazine-1-carboxylate]: the IC50 was found to be 8.3 nM.
Take `Cn1cc(C(=O)Nc2cnc3ccc(N4CCC[C@@H]4c4cc(F)ccc4F)nn23)ccc1=O` [Example 56, (R)-N-(6-(2-(2,5-difluorophenyl)pyrrolidin-1-yl)imidazo[1,2-b]pyridazin-3-yl)-1-methyl-6-oxo-1,6-dihydropyridine-3-carboxamide]: the IC50 came to 10.2 nM.
On to `Cn1nc(C(=O)Nc2cnc3ccc(N4CCC[C@@H]4c4cc(F)ccc4F)nn23)ccc1=O` [Example 57, (R)-N-(6-(2-(2,5-difluorophenyl)pyrrolidin-1-yl)imidazo[1,2-b]pyridazin-3-yl)-1-methyl-6-oxo-1,6-dihydropyridazine-3-carboxamide], for which the IC50 was 2.3 nM.
